Each structure is given as a SMILES string. pIC50: −log10 of the molar value.

Sequence of HCV RNA-dependent RNA polymerase (NS5B) (P26663 2420-3010): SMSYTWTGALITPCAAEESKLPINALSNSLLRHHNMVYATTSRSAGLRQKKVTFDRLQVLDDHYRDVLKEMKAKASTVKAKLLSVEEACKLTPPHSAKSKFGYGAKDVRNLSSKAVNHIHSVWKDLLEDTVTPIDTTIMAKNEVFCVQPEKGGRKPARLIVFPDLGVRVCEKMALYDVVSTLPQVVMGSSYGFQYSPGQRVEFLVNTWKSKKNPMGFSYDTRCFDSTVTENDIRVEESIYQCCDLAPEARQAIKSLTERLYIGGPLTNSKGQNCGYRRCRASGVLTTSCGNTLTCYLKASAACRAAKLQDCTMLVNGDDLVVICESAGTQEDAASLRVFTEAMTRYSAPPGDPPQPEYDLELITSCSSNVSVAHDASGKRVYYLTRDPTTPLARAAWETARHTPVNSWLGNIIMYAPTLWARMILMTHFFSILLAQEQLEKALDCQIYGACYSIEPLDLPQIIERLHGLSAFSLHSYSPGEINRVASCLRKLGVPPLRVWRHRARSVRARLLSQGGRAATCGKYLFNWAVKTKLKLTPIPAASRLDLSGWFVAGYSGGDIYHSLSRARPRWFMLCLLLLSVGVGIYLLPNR

In this experiment the target is HCV RNA-dependent RNA polymerase (NS5B) (Hepatitis C virus genotype 1b (isolate BK) (HCV), UniProt P26663). The experiment in a line: RNA-Dependent RNA HCV NS5B (polymerase) Assay and IC50 Determination. Type of experiment: biochemical. To be noted: purified HCV NS5B polymerase, polyA:U16 substrate, 32P-UTP incorporation; read-out: IC50. The method, then:
RNA-Dependent RNA HCV NS5B (polymerase) Assay and IC50 Determination.
The reaction mixtures consisted of 50 mM Hepes-KOH, pH 7.5, 5 mM MgCl2, 5 mM DTT, 2% glycerol, 0.01% Triton® X-100, 0.5 uM polyA:U16 substrate, purified HCV RNA-dependent RNA polymerase, 10 μM UTP, and ^32P-UTP (Perkin Elmer). The reaction mixtures incubated at 30° C. for 60 minutes, and then filtered through Zeta probe membrane (BioRad). The filter was washed with 5×SSC (75 mM sodium citrate, pH 7 and 750 mM NaCl), and the radiolabeled RNA products were quantitated by microbeta (Perkin Elmer). For IC50 determination, different concentrations of inhibitors were added to the polymerase reaction mixtures, and incubated at 37° C. for 60 minutes. IC50 values were determined using GraFit (Erithaus software).
Table 1 presents IC50 data obtained using the biochemical assay to test representative compounds. Data are presented as follows: “+++” means <0.1 μM; “++” means ≥0.1 μM but <1.0 μM; “+” means ≥1.0 μM.
For orientation: pIC50 means −log10 of the IC50, conventionally taken in molar units. `CNC(=O)c1c(-c2ccc(F)cc2)oc2cc(N(CC(=O)N(C)CC(=O)NCc3cccc(C(=O)C=C(O)C(=O)O)c3)S(C)(=O)=O)c(C3CC3)cc12` [Compound 09-14B, 4-[3-({2-[(2-{[5-Cyclopropyl-2-(4-fluoro-phenyl)-3-methylcarbamoyl-benzofuran-6-yl]-methanesulfonyl-amino}-acetyl)-methyl-amino]-acetylamino}-methyl)-phenyl]-2-hydroxy-4-oxo-but-2-enoic acid]: the pIC50 was less than 6.00.
`CNC(=O)c1c(-c2ccc(F)cc2)oc2cc(N(CC(=O)NC3(C(=O)NCc4cccc(C(=O)C=C(O)C(=O)O)c4)CC3)S(C)(=O)=O)c(C3CC3)cc12` [Compound 09-14D, 4-[3-({[1-(2-{[5-Cyclopropyl-2-(4-fluoro-phenyl)-3-methylcarbamoyl-benzofuran-6-yl]-methanesulfonyl-amino}-acetylamino)-cyclopropanecarbonyl]-amino}-methyl)-phenyl]-2-hydroxy-4-oxo-but-2-enoic Acid]: the pIC50 was less than 6.00.
Then `CNC(=O)c1c(-c2ccc(F)cc2)oc2cc(N(CC(=O)NCC(=O)NCCCCC(=O)OC)S(C)(=O)=O)c(C3CC3)cc12` [Compound 10-3A, 5-[2-(2-{[5-Cyclopropyl-2-(4-fluoro-phenyl)-3-methylcarbamoyl-benzofuran-6-yl]-methanesulfonyl-amino}-acetylamino)-acetylamino]-pentanoic Acid Methyl Ester], with less than 6.00; and `CNC(=O)c1c(-c2ccc(F)cc2)oc2cc(N(CC(=O)NCC(=O)NCCCC(C)C(=O)OC)S(C)(=O)=O)c(C3CC3)cc12` (stereo not shown) [Compound 10-3B, 5-[2-(2-{[5-Cyclopropyl-2-(4-fluoro-phenyl)-3-methylcarbamoyl-benzofuran-6-yl]-methanesulfonyl-amino}-acetylamino)-acetylamino]-2-methyl-pentanoic Acid Methyl Ester], with less than 6.00; and `CNC(=O)c1c(-c2ccc(F)cc2)oc2cc(N(CC(=O)NCC(=O)NCCCCC(=O)O)S(C)(=O)=O)c(C3CC3)cc12` [Compound 10-4A, 5-[2-(2-{[5-Cyclopropyl-2-(4-fluoro-phenyl)-3-methylcarbamoyl-benzofuran-6-yl]-methanesulfonyl-amino}-acetylamino)-acetylamino]-pentanoic Acid], with less than 6.00.
To `CNC(=O)c1c(-c2ccc(F)cc2)oc2cc(N(CC(=O)NCC(=O)NCCCC(C)C(=O)O)S(C)(=O)=O)c(C3CC3)cc12` (stereo not shown) [Compound 10-4B, 5-[2-(2-{[5-Cyclopropyl-2-(4-fluoro-phenyl)-3-methylcarbamoyl-benzofuran-6-yl]-methanesulfonyl-amino}-acetylamino)-acetylamino]-2-methyl-pentanoic Acid] belongs less than 6.00; to `CNC(=O)c1c(-c2ccc(F)cc2)oc2cc(N(CCOCCOCCc3ccccc3C(=O)OC)S(C)(=O)=O)c(C3CC3)cc12` [Compound 11-5A, 2-{2-[2-(2-{[5-Cyclopropyl-2-(4-fluoro-phenyl)-3-methylcarbamoyl-benzofuran-6-yl]-methanesulfonyl-amino}-ethoxy)-ethoxy]-ethyl}-benzoic Acid Methyl Ester], 6.00 to 7.00.
As for `CCOC(=O)c1cccc(CCOCCOCCN(c2cc3oc(-c4ccc(F)cc4)c(C(=O)NC)c3cc2C2CC2)S(C)(=O)=O)c1` [Compound 11-5B, 3-{2-[2-(2-{[5-Cyclopropyl-2-(4-fluoro-phenyl)-3-methylcarbamoyl-benzofuran-6-yl]-methanesulfonyl-amino}-ethoxy)-ethoxy]-ethyl}-benzoic Acid Ethyl Ester], the negative-log IC50 (pIC50) was less than 6.00.
Then `CNC(=O)c1c(-c2ccc(F)cc2)oc2cc(N(CCOCCOCCc3ccc(C(=O)OC)cc3)S(C)(=O)=O)c(C3CC3)cc12` [Compound 11-5C, 4-{2-[2-(2-{[5-Cyclopropyl-2-(4-fluoro-phenyl)-3-methylcarbamoyl-benzofuran-6-yl]-methanesulfonyl-amino}-ethoxy)-ethoxy]-ethyl}-benzoic Acid Methyl Ester], with less than 6.00; and `CNC(=O)c1c(-c2ccc(F)cc2)oc2cc(N(CCOCCOCCc3ccccc3C(=O)O)S(C)(=O)=O)c(C3CC3)cc12` [Compound 11-6A, 2-{2-[2-(2-{[5-Cyclopropyl-2-(4-fluoro-phenyl)-3-methylcarbamoyl-benzofuran-6-yl]-methanesulfonyl-amino}-ethoxy)-ethoxy]-ethyl}-benzoic Acid], with greater than 7.00; and `CNC(=O)c1c(-c2ccc(F)cc2)oc2cc(N(CCOCCOCCc3cccc(C(=O)O)c3)S(C)(=O)=O)c(C3CC3)cc12` [Compound 11-6B, 3-{2-[2-(2-{[5-Cyclopropyl-2-(4-fluoro-phenyl)-3-methylcarbamoyl-benzofuran-6-yl]-methanesulfonyl-amino}-ethoxy)-ethoxy]-ethyl}-benzoic Acid], with greater than 7.00.
As for `CNC(=O)c1c(-c2ccc(F)cc2)oc2cc(N(CCOCCOCCc3ccc(C(=O)O)cc3)S(C)(=O)=O)c(C3CC3)cc12` [Compound 11-6C, 4-{2-[2-(2-{[5-Cyclopropyl-2-(4-fluoro-phenyl)-3-methylcarbamoyl-benzofuran-6-yl]-methanesulfonyl-amino}-ethoxy)-ethoxy]-ethyl}-benzoic Acid], the pIC50 was 6.00 to 7.00.
To `CNC(=O)c1c(-c2ccc(F)cc2)oc2cc(N(CCOCCOCCCc3ccccc3C(=O)OC)S(C)(=O)=O)c(C3CC3)cc12` [Compound 12-6A, 2-{3-[2-(2-{[5-Cyclopropyl-2-(4-fluoro-phenyl)-3-methylcarbamoyl-benzofuran-6-yl]-methanesulfonyl-amino}-ethoxy)-ethoxy]-propyl}-benzoic Acid Methyl Ester] belongs 6.00 to 7.00; to `CNC(=O)c1c(-c2ccc(F)cc2)oc2cc(N(CCOCCOCCCc3ccccc3C(=O)O)S(C)(=O)=O)c(C3CC3)cc12` [Compound 12-7A, 2-{3-[2-(2-{[5-Cyclopropyl-2-(4-fluoro-phenyl)-3-methylcarbamoyl-benzofuran-6-yl]-methanesulfonyl-amino}-ethoxy)-ethoxy]-propyl}-benzoic Acid], greater than 7.00; to `CNC(=O)c1c(-c2ccc(F)cc2)oc2cc(N(CCOCCOCCCc3cccc(C(=O)O)c3)S(C)(=O)=O)c(C3CC3)cc12` [Compound 12-7B, 3-{3-[2-(2-{[5-Cyclopropyl-2-(4-fluoro-phenyl)-3-methylcarbamoyl-benzofuran-6-yl]-methanesulfonyl-amino}-ethoxy)-ethoxy]-propyl}-benzoic Acid], greater than 7.00.
To `CNC(=O)c1c(-c2ccc(F)cc2)oc2cc(N(CCOCCOCCCc3ccc(C(=O)O)cc3)S(C)(=O)=O)c(C3CC3)cc12` [Compound 12-7C, 4-{3-[2-(2-{[5-Cyclopropyl-2-(4-fluoro-phenyl)-3-methylcarbamoyl-benzofuran-6-yl]-methanesulfonyl-amino}-ethoxy)-ethoxy]-propyl}-benzoic Acid] belongs 6.00 to 7.00; to `CNC(=O)c1c(-c2ccc(F)cc2)oc2cc(N(CCOCCCCc3ccc(C(=O)OC)cc3)S(C)(=O)=O)c(C3CC3)cc12` [Compound 13-7A, 4-[4-(2-{[5-Cyclopropyl-2-(4-fluoro-phenyl)-3-methylcarbamoyl-benzofuran-6-yl]-methanesulfonyl-amino}-ethoxy)-butyl]-benzoic Acid Methyl Ester], 6.00 to 7.00.
To `CNC(=O)c1c(-c2ccc(F)cc2)oc2cc(N(CCCOCCCc3ccc(C(=O)OC)cc3)S(C)(=O)=O)c(C3CC3)cc12` [Compound 13-7B, 4-[3-(3-{[5-Cyclopropyl-2-(4-fluoro-phenyl)-3-methylcarbamoyl-benzofuran-6-yl]-methanesulfonyl-amino}-propoxy)-propyl]-benzoic Acid Methyl Ester] belongs 6.00 to 7.00.
As to `CNC(=O)c1c(-c2ccc(F)cc2)oc2cc(N(CCCCOCCc3ccc(C(=O)OC)cc3)S(C)(=O)=O)c(C3CC3)cc12` [Compound 13-7C, 4-[2-(4-{[5-Cyclopropyl-2-(4-fluoro-phenyl)-3-methylcarbamoyl-benzofuran-6-yl]-methanesulfonyl-amino}-butoxy)-ethyl]-benzoic Acid Methyl Ester], the pIC50 is 6.00 to 7.00.
Then `CNC(=O)c1c(-c2ccc(F)cc2)oc2cc(N(CCCCCCCc3ccc(C(=O)OC)cc3)S(C)(=O)=O)c(C3CC3)cc12` [Compound 13-7D, 4-(7-{[5-Cyclopropyl-2-(4-fluoro-phenyl)-3-methylcarbamoyl-benzofuran-6-yl]-methanesulfonyl-amino}-heptyl)-benzoic Acid Methyl Ester], with 6.00 to 7.00.
Then `CNC(=O)c1c(-c2ccc(F)cc2)oc2cc(N(CCOCCCCc3ccc(C(=O)O)cc3)S(C)(=O)=O)c(C3CC3)cc12` [Compound 13-8A, 4-[4-(2-{[5-Cyclopropyl-2-(4-fluoro-phenyl)-3-methylcarbamoyl-benzofuran-6-yl]-methanesulfonyl-amino}-ethoxy)-butyl]-benzoic Acid], with 6.00 to 7.00.
As to `CNC(=O)c1c(-c2ccc(F)cc2)oc2cc(N(CCCOCCCc3ccc(C(=O)O)cc3)S(C)(=O)=O)c(C3CC3)cc12` [Compound 13-8B, 4-[3-(3-{[5-Cyclopropyl-2-(4-fluoro-phenyl)-3-methylcarbamoyl-benzofuran-6-yl]-methanesulfonyl-amino}-propoxy)-propyl]-benzoic Acid], the pIC50 was 6.00 to 7.00.

(Values after US10947210B2 (priority 2015, dated 2021).)
